Assay results: patent US12161723B2, “Water-based cannabinoid and opioid compositions” (DAY THREE LABS MAN[…]., priority 2014, dated 2024)

Tests used:
BSA [1] = molecular target: T1, BSA (Bos taurus, UniProt P02769); assay: Cannabis smoke/vapor passed through BSA/water/ethanol solution, cannabinoid profile (Example 1d); format: binding, bovine; details: 33% ethanol, 48 hours incubation, washed
Experimental: (§1) To show which cannabinoid compounds are solubilized in processes using BSA versus organic solvents, cannabis from two different batches was smoked and or vaporized. Vapor was formed using a “volcano” vaporizer at a temperature of 210° C. The smoke/vapor was passed through either a BSA/water/ethanol solution described in example 1b, comprising 33% by volume ethanol or through a pure ethanol (99% ethanol) solution. Solutions were stirred using a magnetic stirrer and were incubated for 48 hours, during which time, most of the ethanol evaporated. One of the batches of cannabis was high in THC, and the other batch of cannabis was high in both THC and CBD.
The BSA/water/ethanol solution was washed after smoke or vapor was combined with it, and the amount of cannabinoids present was analyzed. The results of the comparison of relative concentration of cannabinoids (relative to total cannabinoid content) as expressed in percent (weight/weight), for a strain of cannabis high in THC are shown in the table below.

[2] = Cannabis smoke/vapor passed through pure ethanol, cannabinoid profile (Example 1d); format: physicochemical; details: for relative concentration of cannabinoids (relative to total cannabinoid content), Vapor passed through ethanol: vapor at 210° C.
Experimental: as §1

albumin (BSA) = albumin (BSA) (Bos taurus, UniProt P02769); assay: Ethanolic cannabinoid solution mixed with aqueous albumin, protein-bound cannabinoid quantified (Example 2b); format: binding, bovine; design: protein-bound cannabinoid quantified, Vapor: unit not given beside the values; details: 100 microliters ethanolic solution + 500 microliters 5 mg/ml BSA, 30° C., 12 hours, non-adsorbed cannabinoids separated
Sequence of albumin (BSA) (P02769 25-607): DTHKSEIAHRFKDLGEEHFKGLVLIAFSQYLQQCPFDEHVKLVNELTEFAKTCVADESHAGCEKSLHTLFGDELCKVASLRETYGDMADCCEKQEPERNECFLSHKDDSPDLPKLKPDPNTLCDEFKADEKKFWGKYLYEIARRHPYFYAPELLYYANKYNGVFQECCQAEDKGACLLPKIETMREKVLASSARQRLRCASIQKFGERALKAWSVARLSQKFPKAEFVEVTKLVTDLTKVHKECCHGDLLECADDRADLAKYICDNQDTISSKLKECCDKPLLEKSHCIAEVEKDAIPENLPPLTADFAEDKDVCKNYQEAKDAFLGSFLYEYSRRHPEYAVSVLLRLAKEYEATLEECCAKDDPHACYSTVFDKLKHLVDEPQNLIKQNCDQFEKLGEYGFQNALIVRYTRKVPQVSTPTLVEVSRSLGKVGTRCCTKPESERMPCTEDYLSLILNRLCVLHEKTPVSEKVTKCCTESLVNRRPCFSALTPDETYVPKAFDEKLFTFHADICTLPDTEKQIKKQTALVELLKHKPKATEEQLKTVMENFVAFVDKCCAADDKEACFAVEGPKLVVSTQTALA
Experimental: 100 microliters of ethanolic cannabinoid solution from cannabis vapor and cannabis smoke were each mixed with 500 microliters of aqueous albumin solution that had been prepared at a concentration of 5 mg albumin (BSA)/ml. The aqueous albumin solution combined with the ethanolic cannabinoid solution was incubated at 30° C. for 12 hours in open tubes. After 12 hours, the tubes were mixed and centrifuged, and non-adsorbed cannabinoids were separated from the solution. Concentrated protein-bound cannabinoid was dried and quantified as described below.

[3] = 3 g high THC strain; 200 ml ethanol concentrated to about 3 ml
bovine γ-globulin = assay: Cannabis vapor streamed through protein solution, cannabinoids adsorbed (Example 1f); format: binding; details: vapor of cannabis high in CBD; 1 mg/ml protein, ethanol:water 1:2, 30° C., 24 hours
Experimental: (§2) The protein solutions were formed using ethanol and water in a 1:2 ratio. The solutions were incubated at 30° C. for 24 hours.

ovalbumin (hen) = molecular target: T2, ovalbumin (hen) (Gallus gallus, UniProt P01012); assay: as above; format: binding; details: vapor of cannabis high in CBD; for percentage of each cannabinoid relative to total cannabinoids adsorbed to protein, Ovalbumin: 1 mg/ml protein, ethanol:water 1:2, 30° C., 24 hours
T2 sequence (P01012 1-386): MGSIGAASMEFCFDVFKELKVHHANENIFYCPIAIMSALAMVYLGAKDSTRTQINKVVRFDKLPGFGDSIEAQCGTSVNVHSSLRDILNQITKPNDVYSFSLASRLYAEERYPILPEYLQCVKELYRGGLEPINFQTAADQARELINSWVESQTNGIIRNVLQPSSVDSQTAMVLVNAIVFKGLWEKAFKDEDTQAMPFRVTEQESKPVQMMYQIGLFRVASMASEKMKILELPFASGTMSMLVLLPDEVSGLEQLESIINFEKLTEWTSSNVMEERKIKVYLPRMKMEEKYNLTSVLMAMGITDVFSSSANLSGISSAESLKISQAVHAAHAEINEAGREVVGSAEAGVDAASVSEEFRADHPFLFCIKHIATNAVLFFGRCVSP
Experimental: as §2

[4] = molecular target: T3, rice recombinant human serum albumin (HSA) (Homo sapiens, UniProt P02768); assay: as above; format: binding; details: vapor of cannabis high in CBD; 1 mg/ml protein, ethanol:water 1:2, 30° C., 24 hours
T3 construct: host or cells: rice (recombinant expression host)
T3 sequence (P02768 25-609): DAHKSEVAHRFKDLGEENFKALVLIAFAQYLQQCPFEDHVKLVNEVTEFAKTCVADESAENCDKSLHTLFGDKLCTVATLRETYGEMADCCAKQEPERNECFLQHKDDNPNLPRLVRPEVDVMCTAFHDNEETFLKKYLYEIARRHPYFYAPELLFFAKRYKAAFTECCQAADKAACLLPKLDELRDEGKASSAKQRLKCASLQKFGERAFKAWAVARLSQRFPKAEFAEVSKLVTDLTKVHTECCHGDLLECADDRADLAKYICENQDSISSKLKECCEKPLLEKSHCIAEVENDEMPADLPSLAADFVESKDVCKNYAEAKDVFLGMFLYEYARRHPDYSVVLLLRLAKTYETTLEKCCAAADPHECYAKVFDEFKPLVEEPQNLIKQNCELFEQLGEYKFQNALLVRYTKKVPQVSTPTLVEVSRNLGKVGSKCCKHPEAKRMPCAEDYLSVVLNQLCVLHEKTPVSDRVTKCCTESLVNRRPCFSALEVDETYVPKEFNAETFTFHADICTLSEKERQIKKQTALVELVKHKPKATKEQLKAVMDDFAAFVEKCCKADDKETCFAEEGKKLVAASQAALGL
Experimental: as §2

[5] = Cannabinoid content of cannabis extract (Example 2a); format: physicochemical; details: methanol/chloroform 9:1 cannabis extract
Experimental: (§3) Cannabis extract was prepared as follows: In short, cannabis plant matter is dried, ground and homogenized to form ground cannabis. The ground cannabis is extracted with methanol/chloroform (volume/volume ratio of 9:1). Sonication and filtration is then performed. Identity of cannabinoids is determined by HPLC by evaporation, dissolution in an appropriate solvent.
(§4) Drying of the cannabis plant matter occurs under high vacuum at about 37±2° C. for about 24 hours and then ground to form a fine powder. 200 mg of ground powder is combined with 10 ml of methanol/chloroform, and sonicated in an ice bath for 30 minutes at maximum power. The supernatant is then filtered through a 0.2 micron filter.
(§5) A sample of the cannabis extract was analyzed for content of cannabinoids. The cannabis extract was then combined with albumin solution having 20% ethanol at 10 mg/ml (BSA) and incubated for 2 hours at room temperature.

BSA [6] = molecular target: T1, BSA; assay: Cannabis extract combined with albumin solution, cannabinoids adsorbed to BSA (Example 2a); format: binding, bovine; details: albumin solution 10 mg/ml (BSA) with 20% ethanol, 2 hours at room temperature
Experimental: as §3, §4, §5

[7] = strain of cannabis high in CBD and THC

T1 sequence (P02769 25-607): as the sequence (P02769 25-607) above

Row | Molecule | relative concentration of cannabinoids (relative to total cannabinoid content), Smoke passed through BSA/water/ethanol (BSA [1]; [7]) | relative concentration of cannabinoids (relative to total cannabinoid content), Vapor passed through BSA/water/ethanol (BSA [1]; [7]) | relative concentration of cannabinoids (relative to total cannabinoid content), Smoke passed through BSA/water/ethanol (BSA [1]; strain of cannabis high in THC) | relative concentration of cannabinoids (relative to total cannabinoid content), Smoke passed through ethanol [2, 7] | relative concentration of cannabinoids (relative to total cannabinoid content), Vapor passed through ethanol [2, 7] | relative concentration of cannabinoids (relative to total cannabinoid content), Smoke passed through ethanol ([2]; strain of cannabis high in THC) | relative concentration of cannabinoids (relative to total cannabinoid content), Vapor passed through ethanol ([2]; strain of cannabis high in THC) | protein-bound cannabinoid quantified, Smoke (albumin (BSA)) | protein-bound cannabinoid quantified, Vapor (albumin (BSA)) | amount of cannabinoids dissolved in ethanol, Smoke [3] [micrograms/ml] | amount of cannabinoids dissolved in ethanol, Vapor [3] [micrograms/ml] | percentage of each cannabinoid relative to total cannabinoids adsorbed to protein, Bovine γ-globulin (bovine γ-globulin) [percentage] | percentage of each cannabinoid relative to total cannabinoids adsorbed to protein, Ovalbumin (ovalbumin (hen)) [percentage] | percentage of each cannabinoid relative to total cannabinoids adsorbed to protein, Rice recombinant HSA [4] [percentage] | percentage of each cannabinoid relative to total cannabinoids, Extract [5] [percentage] | percentage of each cannabinoid relative to total cannabinoids adsorbed to protein, Adsorbed to BSA after extract combined with BSA solution (BSA [6]) [percentage] | cannabinoid adsorbed per mg of protein (ovalbumin (hen); 1 mg/ml ovalbumin)
1 | CCCCCc1cc(O)c2c(c1)OC(C)(C)[C@@H]1CC=C(C)C[C@@H]21 [DELTA-8-THC] | 0.0 percent (weight/weight) | 0.0 percent (weight/weight) | 0.0 percent (weight/weight) | 0.0 percent (weight/weight) | 0.0 percent (weight/weight) | 0.0 percent (weight/weight) | 0.0 percent (weight/weight) | 0 | 4.6 | 0 | 0 |  |  |  |  |  | 
2 | CCCCCc1cc(O)c(C/C=C(\C)CCC=C(C)C)c(O)c1 [CBG, cannabigerol] | 0.0 percent (weight/weight) | 0.0 percent (weight/weight) | 21.0 percent (weight/weight) | 4.2 percent (weight/weight) | 1.5 percent (weight/weight) | 4.9 percent (weight/weight) | 1.2 percent (weight/weight) | 5.9 | 11.685 | 292.063 | 183.6224 | 0 | 0 | 0 | 3 | 1 | 
3 | C=C(C)[C@@H]1CCC(C)=C[C@H]1c1c(O)cc(CCCCC)cc1O [CBD, cannabidiol, reference compound] | 22.3 percent (weight/weight) | 33.4 percent (weight/weight) | 0.0 percent (weight/weight) | 44.7 percent (weight/weight) | 51.1 percent (weight/weight) | 1.9 percent (weight/weight) | 0.3 percent (weight/weight) | 0 | 0 | 0 | 17.2726 | 0 | 55.9 | 33 | 0 | 0 | 
4 | CCCCCc1cc(O)c(C/C=C(\C)CCC=C(C)C)c(O)c1C(=O)O [CBGA, cannabigerolic acid] | 0.0 percent (weight/weight) | 0.0 percent (weight/weight) | 0.0 percent (weight/weight) | 0.4 percent (weight/weight) | 0.0 percent (weight/weight) | 0.6 percent (weight/weight) | 0.1 percent (weight/weight) | 0.58 | 1.43 | 23.088 | 28.7668 | 0 | 0 | 0 | 3 | 2 | 
5 | CCCc1cc(O)c2c(c1)OC(C)(C)[C@@H]1CCC(C)=C[C@@H]21 [THCV, tetrahydrocannabivarin] | 0.0 percent (weight/weight) | 0.0 percent (weight/weight) | 0.0 percent (weight/weight) | 2.4 percent (weight/weight) | 0.8 percent (weight/weight) | 2.4 percent (weight/weight) | 0.7 percent (weight/weight) |  |  |  |  |  |  |  |  |  | 
6 | ovalbumin: ovalbumin (hen) (protein, UniProt P01012 2-386, looked up) Ovalbumin: GSIGAASMEFCFDVFKELKVHHANENIFYCPIAIMSALAMVYLGAKDSTRTQINKVVRFDKLPGFGDSIEAQCGTSVNVHSSLRDILNQITKPNDVYSFSLASRLYAEERYPILPEYLQCVKELYRGGLEPINFQTAADQARELINSWVESQTNGIIRNVLQPSSVDSQTAMVLVNAIVFKGLWEKAFKDEDTQAMPFRVTEQESKPVQMMYQIGLFRVASMASEKMKILELPFASGTMSMLVLLPDEVSGLEQLESIINFEKLTEWTSSNVMEERKIKVYLPRMKMEEKYNLTSVLMAMGITDVFSSSANLSGISSAESLKISQAVHAAHAEINEAGREVVGSAEAGVDAASVSEEFRADHPFLFCIKHIATNAVLFFGRCVSP |  |  |  |  |  |  |  |  |  |  |  |  |  |  |  |  | about 4 micrograms of cannabinoid per mg of protein
